Assay results reported in ChEMBL document CHEMBL1201862, “PubChem BioAssay data set” (2004).
Active and inactive are the calls of the source.

Legend:
[1] = A Cell Based Secondary Assay To Explore Cytotoxicity of Compounds that Sensitize Mycobacterium Tuberculosis to Beta-Lactam Antibiotics.; type: functional
[2] = Counterscreen for IDE inhibitors: Luminescence-based cell-based high throughput dose response assay to identify compounds that are cytotoxic to HEK cells. [Related pubchem assays: 434962 (Primary screen (IDE inhibitors in singlicate)), 449730 (Counterscreen (Cytotoxicity in triplicate)), 435028 (Confirmation (IDE inhibitors in triplicate)) …; type: functional; details: HEK293
[3] = biological target: T1, Insulin-degrading enzyme (Homo sapiens, UniProt P14735); experiment: Dose Response: Fluorescence polarization-based cell-based high throughput dose response assay for inhibitors of insulin-degrading enzyme (IDE). [Related pubchem assays: 434962 (Primary screen (IDE inhibitors in singlicate)), 449730 (Counterscreen (Cytotoxicity in triplicate)), 435028 (Confirmation (IDE inhibitors in triplicate)), 434984 (Summary …; type: functional
T1 sequence (P14735 whole entry): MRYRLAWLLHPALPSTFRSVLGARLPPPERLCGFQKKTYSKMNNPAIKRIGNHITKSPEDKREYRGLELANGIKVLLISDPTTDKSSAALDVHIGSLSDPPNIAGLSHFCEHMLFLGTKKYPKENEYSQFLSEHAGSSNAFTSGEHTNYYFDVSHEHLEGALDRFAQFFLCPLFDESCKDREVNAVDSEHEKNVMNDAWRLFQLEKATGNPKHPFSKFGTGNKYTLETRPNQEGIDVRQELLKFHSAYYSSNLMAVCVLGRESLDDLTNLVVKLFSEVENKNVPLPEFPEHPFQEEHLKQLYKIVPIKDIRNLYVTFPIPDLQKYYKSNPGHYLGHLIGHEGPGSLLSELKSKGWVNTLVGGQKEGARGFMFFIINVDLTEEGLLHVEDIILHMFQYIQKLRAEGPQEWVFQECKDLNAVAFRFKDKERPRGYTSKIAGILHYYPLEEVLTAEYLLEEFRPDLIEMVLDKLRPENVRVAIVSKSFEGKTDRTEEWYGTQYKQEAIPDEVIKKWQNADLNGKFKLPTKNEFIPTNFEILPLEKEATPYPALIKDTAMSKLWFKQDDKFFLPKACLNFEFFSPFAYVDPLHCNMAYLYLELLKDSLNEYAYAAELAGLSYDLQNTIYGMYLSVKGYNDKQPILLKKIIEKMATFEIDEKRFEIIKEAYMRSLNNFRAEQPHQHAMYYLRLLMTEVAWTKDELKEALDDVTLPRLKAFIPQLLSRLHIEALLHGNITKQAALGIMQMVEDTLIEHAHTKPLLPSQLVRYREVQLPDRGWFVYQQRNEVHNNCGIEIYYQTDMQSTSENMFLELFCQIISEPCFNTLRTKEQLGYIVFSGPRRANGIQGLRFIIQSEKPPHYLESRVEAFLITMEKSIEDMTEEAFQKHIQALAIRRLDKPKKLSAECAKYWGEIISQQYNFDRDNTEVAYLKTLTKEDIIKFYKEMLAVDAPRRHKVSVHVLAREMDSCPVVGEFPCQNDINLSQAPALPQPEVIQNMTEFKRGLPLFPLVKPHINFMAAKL

[4] = biological target: G-protein coupled receptor 35 (Homo sapiens, UniProt Q9HC97); experiment: GPR35 antagonists blocking zaprinast-driven arrestin recruitment, primary screen, imaging, U2OS, beta-arrestin-GFP, zaprinast agonist (AID 2058); type: functional;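 also: antagonist potency meaning inhibition of agonist-induced arrestin redistribution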
[5] = biological target: Heat shock protein HSP 90-alpha (Homo sapiens, UniProt P07900); type: functional, organism-based
[6] = biological target: T2, Acyl-homoserine lactone acylase PvdQ (Pseudomonas aeruginosa (strain LESB58), UniProt Q9I194); experiment: P. aeruginosa PvdQ acylase inhibitors, dose response, biochemical, fluorescence, plate reader and imaging, cherry-picks (AID 493231)
T2 sequence (Q9I194 whole entry): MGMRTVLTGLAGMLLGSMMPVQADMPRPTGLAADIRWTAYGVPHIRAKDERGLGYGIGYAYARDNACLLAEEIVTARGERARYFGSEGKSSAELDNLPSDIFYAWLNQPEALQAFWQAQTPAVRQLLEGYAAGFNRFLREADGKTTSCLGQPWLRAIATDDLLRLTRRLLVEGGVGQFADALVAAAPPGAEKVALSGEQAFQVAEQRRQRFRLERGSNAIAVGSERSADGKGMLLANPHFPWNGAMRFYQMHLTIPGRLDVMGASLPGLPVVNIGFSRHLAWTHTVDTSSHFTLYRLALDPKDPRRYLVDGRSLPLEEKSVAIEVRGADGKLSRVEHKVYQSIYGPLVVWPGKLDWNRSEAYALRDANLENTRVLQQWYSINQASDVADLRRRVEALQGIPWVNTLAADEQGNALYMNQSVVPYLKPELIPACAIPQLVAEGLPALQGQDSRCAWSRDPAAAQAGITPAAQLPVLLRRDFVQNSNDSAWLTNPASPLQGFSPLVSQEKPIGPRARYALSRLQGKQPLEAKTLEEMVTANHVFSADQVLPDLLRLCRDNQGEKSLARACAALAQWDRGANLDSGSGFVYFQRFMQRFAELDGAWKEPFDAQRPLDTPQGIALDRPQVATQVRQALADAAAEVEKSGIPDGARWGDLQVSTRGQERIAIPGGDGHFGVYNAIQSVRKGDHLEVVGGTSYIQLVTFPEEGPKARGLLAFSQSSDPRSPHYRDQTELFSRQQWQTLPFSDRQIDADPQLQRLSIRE

[7] = biological target: T3, Lysosomal acid glucosylceramidase (Homo sapiens, UniProt P04062); experiment: Dose response cell-based high throughput screening assay to identify enhancers of beta-glucosidase activity. [Related pubchem assays: 784 ]; type: functional
T3 sequence (P04062 whole entry): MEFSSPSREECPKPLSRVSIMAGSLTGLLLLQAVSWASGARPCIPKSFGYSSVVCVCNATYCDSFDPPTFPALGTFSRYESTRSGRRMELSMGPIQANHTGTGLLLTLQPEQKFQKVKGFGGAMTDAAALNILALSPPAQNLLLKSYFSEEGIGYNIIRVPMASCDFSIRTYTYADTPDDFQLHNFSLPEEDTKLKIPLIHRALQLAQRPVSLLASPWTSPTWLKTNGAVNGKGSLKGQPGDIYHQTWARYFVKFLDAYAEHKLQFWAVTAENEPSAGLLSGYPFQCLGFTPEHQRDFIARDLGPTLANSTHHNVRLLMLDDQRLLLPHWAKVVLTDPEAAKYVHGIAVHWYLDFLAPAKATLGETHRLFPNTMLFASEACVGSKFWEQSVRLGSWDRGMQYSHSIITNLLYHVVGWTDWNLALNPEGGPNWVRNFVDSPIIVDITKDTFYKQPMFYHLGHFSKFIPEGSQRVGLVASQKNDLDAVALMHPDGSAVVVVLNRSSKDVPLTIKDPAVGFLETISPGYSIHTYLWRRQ

[8] = M. tuberculosis H37Rv growth inhibitors, H37Rv strain (AID 1626); type: functional
[9] = biological target: Melanocortin receptor 4 (Homo sapiens, UniProt P32245); type: functional, cell-based;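 also: Cell-based assay with luminescence read-out, confirmatory dose-response testing for agonist activity of biased ligands at MC4R; human U2OS cells with tagged receptor and beta-arrestin; potency of agonists that increase receptor coupling to beta-arrestin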
[10] = growth suppression of PTEN-null colon cells, dose response, cell-based, HCT116 PTEN knockout (AID 1047); type: functional;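 also: HCT116 colon tumor cells with PTEN knocked out; cells exposed to compound for 60 hours before readout; potency for loss of cell viability measured by luminescence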
[11] = growth suppression of beta-catenin-knockout colon cells, dose response, cell-based, HCT116, human colon tumor (AID 1045); type: functional;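 also: HCT116 colon tumor cells with beta catenin knocked out; cells exposed to compound for 60 hours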
[12] = cells; type: functional, cell-based
[13] = cells; type: functional, cell-based; remark: listed apart in the source
[14] = tested on: Streptococcus sp. 'group A'; experiment: growth inhibition of control SK(-) GAS strain, dose response, counter-screen for streptokinase expression inhibitor project, luminescence, kanamycin, BacTiterGlo, confirmation (AID 1900); type: functional, organism-based
[15] = biological target: T4, Streptokinase A (Streptococcus pyogenes serotype M1, UniProt P10520); experiment: S. pyogenes streptokinase expression inhibitors, potency, dose response, plasminogen activation absorbance, OD405 (AID 1914); type: functional, Streptococcus pyogenes M1 GAS;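 also: secreted streptokinase activity via plasminogen activation per viability signal from cell pellet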
T4 sequence (P10520 whole entry): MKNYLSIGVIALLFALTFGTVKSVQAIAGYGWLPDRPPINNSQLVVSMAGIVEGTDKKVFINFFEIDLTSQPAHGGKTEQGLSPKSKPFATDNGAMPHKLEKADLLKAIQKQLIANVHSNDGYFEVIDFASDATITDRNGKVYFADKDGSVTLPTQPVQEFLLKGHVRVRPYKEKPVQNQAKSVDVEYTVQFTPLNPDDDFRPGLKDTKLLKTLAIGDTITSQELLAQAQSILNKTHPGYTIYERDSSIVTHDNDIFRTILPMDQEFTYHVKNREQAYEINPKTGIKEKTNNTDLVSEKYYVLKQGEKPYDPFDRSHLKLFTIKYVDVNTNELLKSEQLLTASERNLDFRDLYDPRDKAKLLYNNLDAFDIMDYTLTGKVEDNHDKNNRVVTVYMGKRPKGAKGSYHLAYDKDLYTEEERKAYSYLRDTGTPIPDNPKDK

[16] = cytotoxicity in HPDE-C7 cells, cell-based, fluorescence, HTS (AID 430); type: functional; details: Homo sapiens
[17] = cytotoxicity in KRAS-transformed pancreatic duct cells, primary screen, cell-based, fluorescence, HTS (AID 431); type: functional; details: Homo sapiens;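 also: cell line used: HPDE-C7K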
[18] = tested on: Streptococcus; experiment: Group A Streptococcus viability loss, dose response, counter-screen for streptokinase expression inhibitor project, luminescence, BacTiterGlo (AID 1915); type: functional, organism-based;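 also: potency for reduction of bacterial viability or growth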

Chain of Melanocortin receptor 4 (P32245 whole entry): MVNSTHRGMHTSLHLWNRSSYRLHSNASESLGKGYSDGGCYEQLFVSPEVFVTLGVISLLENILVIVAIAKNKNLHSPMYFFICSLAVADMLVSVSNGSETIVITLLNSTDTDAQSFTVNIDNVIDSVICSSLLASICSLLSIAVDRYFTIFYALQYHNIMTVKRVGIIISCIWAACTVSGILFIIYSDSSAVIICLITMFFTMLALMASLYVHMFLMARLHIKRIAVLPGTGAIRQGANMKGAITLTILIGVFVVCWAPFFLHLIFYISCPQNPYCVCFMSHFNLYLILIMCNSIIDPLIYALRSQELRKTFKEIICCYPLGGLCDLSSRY
Chain of G-protein coupled receptor 35 (Q9HC97 whole entry): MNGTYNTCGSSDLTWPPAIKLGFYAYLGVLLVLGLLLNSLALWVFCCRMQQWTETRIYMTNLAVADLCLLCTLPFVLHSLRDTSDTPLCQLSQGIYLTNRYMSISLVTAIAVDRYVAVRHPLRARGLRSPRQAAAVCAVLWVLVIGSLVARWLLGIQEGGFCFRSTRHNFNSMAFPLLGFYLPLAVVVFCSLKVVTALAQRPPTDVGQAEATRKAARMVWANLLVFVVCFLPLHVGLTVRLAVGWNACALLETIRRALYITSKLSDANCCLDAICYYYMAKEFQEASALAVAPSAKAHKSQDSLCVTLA

With O=C(/C=C/c1ccc([N+](=O)[O-])cc1)c1cccs1 the CC50 [1] was 20.9 µM (active).
In the case of Cc1cc(C)cc(Nc2cnn(C34CC5CC(CC(CC(=O)O)(C5)C3)C4)c(=O)c2Cl)c1, the IC50 [2] is reported as 0.0039 µM (active) and the IC50 [3] is reported as 21.5 µM (not active).
With CN(C)/C=C/C(=O)c1ccc(N2CCN(c3ncc(C(F)(F)F)cc3Cl)CC2)cc1 the IC50 [4] was 0.53 µM (active) and the AC50 [5] was 4.29 µM (active).
In the case of CCN1C(=O)/C(=C/C=C2/CCCN2C)OC1=S, the IC50 [2] is reported as > 55.7 µM (not active) and the IC50 [3] is reported as 30.7 µM (not active).
For Cc1ccc(S(=O)(=O)NCc2ccc3c(c2)OCO3)cc1C, the AC50 [6] was 70.4 µM (active).
In the case of Cc1nonc1NC(=O)CSc1nc2cc(Cl)ccc2c2c1CCCC2, the EC50 [7] is reported as > 10 µM (not active).
In the case of O=C(COc1ccc2c(c1)OCO2)Nc1ccc2c(c1)oc1ccccc12, the IC50 [8] is reported as > 100 µM (active) and the EC50 [9] is reported as > 89.2 µM (inactive).
With Oc1ccc(F)cc1-c1cc(-c2ccc3c(c2)OCCO3)[nH]n1 the EC50 [10] was 46.6 µM (active), the EC50 [11] was 25.9 µM (active) and the AC50 [6] was > 100 µM (inactive).
In the case of CCCCCCN1C=CC=C/C1=C/C=C(C#N)C#N, the EC50 [12] is reported as > 350 µM (not active), the IC50 [2] is reported as 45.9 µM (not active) and the EC50 [13] is reported as > 350 µM (not active). For the same compound, the IC50 [3] was > 6.22 µM (active).
In the case of CC(C)(C)C1CCC2(CC1)C(C#N)=C(SCC(=O)Nc1ccccc1)NC(=O)C2C#N (centres undefined), the EC50 [14] is reported as 4.96 µM (active), the EC50 [15] is reported as 11.5 µM (active) and the EC50 [16] is reported as 5.05 µM (active). For the same compound, the EC50 [17] was 4.26 µM (active) and the EC50 [18] was 25.2 µM (active).
For Cc1cccnc1NC(=O)c1c(O)c2cccc3c2n(c1=O)CCC3, the CC50 [1] was > 40 µM (active).
